Reference: patent US10973763B2, “Inhalable pharmaceutical compositions” (Berg LLC, priority 2011, dated 2021)
Several values for one entry are separate records, joined by “and”; a condition that tells them apart may be missing. Equal entries are not always repeated.

What was measured:
[1] = Drug loading suitable for continuous nebulization (Example 5); assay type: physicochemical; conditions: 15-minute nebulization, Aeroneb Pro, DMPC 2.5% w/w
Description: Formulations were prepared based upon the general methods discussed in connection with Examples 1 and 2. For this study, specific dispersions were prepared with 50 microfluidization discrete passes using 2.5% w/w of dimyristoyl phosphatidylcholine (DMPC) and 7.5%, 7.0%, 6.0%, 5.0%, or 4.0% w/w of CoQ10. The dispersions were then aerosolized within 24 hour using an Aeroneb Pro® nebulizer for 15 minute aerosolization event. The aerosolization profile was monitored via analysis of Total Aerosol Output (TAO) and using laser diffraction with a Malvern Spraytec® coupled with an inhalation cell as described above.

[2] = CoQ10 level in lung tissue after nose-only aerosol dosing; assay type: in vivo, mice
Description: (§1) Animals were caged in groups of 4 and maintained on a normal rodent chow diet with free access to water. Prior to dosing, CD-1® IGS ICR mice (Charles River Laboratories International, Inc., Wilmington, Mass., USA) were individually acclimatized for approximately 10 minutes per day for 3 days into restraint tubes, restricted by an anterior nose insert and a posterior holder. The dosing apparatus was placed inside a fume hood to collect escaping aerosol containing drug. To avoid influence from the airflow provided by the fume hood, an erlenmeyer container was placed at the end of the tubing system as a buffer. The airflow rate was set to 1 L/min to ensure proper drug aerosolization into the nose-only chamber (internal volume: 230 mL; diameter: 3.8 cm; length: 20.3 cm) using an Aeroneb Pro® vibrating-mesh nebulizer (Aerogen, Galway, Ireland). Following preparation, all formulations (saline control, DMPC, DPPC, and DSPC) were dosed for 15 minutes to mice weighing from 23 to 33 g each, at time of dosing. Each single-dose studied group consisted of thirty-six male animals. At each time point (0.5, 1, 3, 8, 24, and 48 hours after the end of the aerosolization event) six animals randomly selected from different dosing events of the same formulation were sacrificed by narcosis with carbon dioxide. As part of the collection process, blood was withdrawn by cardiac puncture, lungs were harvested, and a nasal wash was performed. […]
For each experiment, CoQ10 levels were determined after liquid extraction using liquid chromatography coupled with tandem mass spectrometry (LC-MS/MS). […]
Samples were tested for normality using the Shapiro Wilk test (p<0.05) and outliers were excluded from data analysis. Pharmacokinetic parameters were determined using Microsoft Office Excel 2007 software (Redmond, Wash.) with the add-in program PKSolver. […] At each time point, lung tissue samples were analyzed for statistical differences among different groups with One-Way ANOVA for significance (p<0.05). […]

[3] = Particle size distribution by laser diffraction (LD); assay type: physicochemical; conditions: bulk CoQ10 powder
Description: Bulk CoQ10 powder was dispersed in 20% (v/v) 1,3-propanediol in deionized water for analysis of particle size distribution. This dispersed sample was then added to a small cell apparatus in a Malvern Mastersizer S® instrument (Malvern Instruments, Worcestershire, UK) equipped with a 300 mm lens until 5-10% obscuration was attained. The internal phase and dispersant refractive indexes were 1.45 and 1.33, respectively.
Particle size distribution testing of the dispersed formulations was performed with LD using a wet sample dispersion unit stirring at 1,000 rpm coupled to a Malvern Spraytec® (Malvern Instruments, Worcestershire, UK) equipped with a 300 mm lens. The dispersed formulations were added to distilled water (dispersant) until approximately 5% laser obscuration was attained. The internal phase and dispersant refractive indexes were set as 1.45 and 1.33, respectively. […] Span is a measurement of particle size distribution calculated as [Dv(90)−[…]]/Dv(50)]. […]
Particle size distribution testing of the dispersed formulations was performed with LD using a wet sample dispersion unit stirring at 1,000 rpm coupled to a Malvern Spraytec® (Malvern Instruments, Worcestershire, UK) equipped with a 300 mm lens. […] Span is the measurement of particle size distribution calculated as [Dv(90)−Dv(10)]/Dv(50)]. […]

IL-12 = assay: Inflammatory response: BAL supernatant ELISA for IL-12; assay type: in vivo, mice; conditions: pulmonary administration
Description: The inflammatory response to the administration of hydrophobic bioactive agents (e.g., as discussed in connection with Example 1-3 above) was measured. Surgery is performed on sacrificed mice to expose the pleural cavity and trachea at the throat. […] An aliquot (about 0.75 mL) of phosphate buffered saline is instilled through the cannula into the lungs and removed to wash the bronchial and alveolar surfaces. This process is repeated for a total of three washes. The phosphate buffered saline containing cells is placed into centrifuge vials and centrifuged at about 3000 rpm (MiniSpin Plus, Eppendorf International, Hamburg, Del.). The supernatant is removed leaving the collected cells in the pellet. The supernatant from the BAL (Bronchoalveolar Lavage) is analyzed by enzyme-linked immunosorbent assay (ELISA) for IL-12 elevation (n=2 per sample tested).

mice = assay: Survival and health of mice after nebulization event; assay type: in vivo; conditions: 48 hours after the end of the nebulization event
Description: as §1, with “dioxide.” for “dioxide. As part of the collection process, blood was withdrawn by cardiac puncture, lungs were harvested, and a nasal wash was performed.”

[4] = previous studies, same nebulizer

Structure (SMILES): COC1=C(OC)C(=O)C(C/C=C(\C)CC/C=C(\C)CC/C=C(\C)CC/C=C(\C)CC/C=C(\C)CC/C=C(\C)CC/C=C(\C)CC/C=C(\C)CC/C=C(\C)CCC=C(C)C)=C(C)C1=O [CoQ10, Coenzyme Q10]
- maximum nominal drug loading without intermittent mist [1]: 4 % w/w
- time CoQ10 stays in the lungs at relatively high concentrations ([2]; after 15-minute aerosol dosing): up to 48 hours
- lung Cmax relative to cyclosporine A dispersions [2, 4]: ≤ 75 fold
- lung Cmax relative to itraconazole dispersions [2, 4]: ≤ 165 fold
- Dv(50) / particle size [3]: 30 μm and 29.87 μm
- IL-12 levels in BAL supernatant (IL-12; ELISA): not associated with a rise in IL-12 levels
- lung inflammation (IL-12): does not cause lung inflammation
- survival and health of mice (mice): all mice were alive and presenting healthy signs
